Data published in ChEMBL document CHEMBL4251583, “Quinoxaline: An insight into the recent pharmacological advances” (Eur J Med Chem, 2018).
Converted amounts (≈) assume the structure as drawn.

Experiments:
[1] = test system: Rattus norvegicus; assay: Antiinflammatory activity in carrageenan-induced paw edema Wistar rat model assessed as protection against edema formation up to 2000 mg/kg, po measured 3 hrs post dose relative to control; type: functional
[2] = test system: WI-38; assay: Cytotoxicity against human WI38 cells assessed as cell growth inhibition after 48 hrs by SRB assay; type: cell-based; settings: WI-38, 48 h
[3] = test system: Plasmodium falciparum; assay: Antiplasmodial activity against Plasmodium falciparum K1 infected in human erythrocytes preincubated for 24 hrs followed by [3H]hypoxanthine addition measured after 24 hrs by scintillation counting; type: functional, organism-based
[4] = test system: SK-N-SH; assay: Antiproliferative activity against human SK-N-SH cells after 72 hrs by MTT assay; type: functional, cell-based
[5] = test system: IMR-32; assay: Antiproliferative activity against human IMR32 cells after 72 hrs by MTT assay; type: functional, cell-based; settings: IMR-32, 72 h
[6] = test system: Mycobacterium tuberculosis; assay: Antitubercular activity against Mycobacterium tuberculosis H37Rv after 5 days by MABA method; type: functional; settings: 120 h
[7] = test system: Staphylococcus aureus; assay: Antibacterial activity against Staphylococcus aureus ATCC 25923 after 18 hrs by broth microdilution method; type: functional; settings: ATCC 25923, 18 h
[8] = test system: Proteus vulgaris; assay: Antibacterial activity against Proteus vulgaris ATCC 29905 after 18 hrs by broth microdilution method; type: functional; settings: ATCC 29905, 18 h
[9] = test system: Escherichia coli; assay: Antibacterial activity against Escherichia coli ATCC 25922 after 18 hrs by broth microdilution method; type: functional; settings: ATCC 25922, 18 h
[10] = test system: Pseudomonas aeruginosa; assay: Antibacterial activity against Pseudomonas aeruginosa ATCC 27853 after 18 hrs by broth microdilution method; type: functional; settings: ATCC 27853, 18 h
[11] = test system: Salmonella typhimurium; assay: Antibacterial activity against […] ATCC 14028 after 18 hrs by broth microdilution method; type: functional, Salmonella enterica subsp. enterica serovar Typhimurium; settings: Salmonella enterica, ATCC 14028, 18 h
[12] = test system: Rattus norvegicus; assay: Antiinflammatory activity in carrageenan-induced paw edema rat model assessed as inhibition of carrageenan-induced edema relative to control; type: functional
[13] = test system: Rattus norvegicus; assay: Antiinflammatory activity in carrageenan-induced paw edema Fisher 344 rat model assessed as protection against carrageenan-induced edema at 0.01 mmol/kg, ip administered simultaneously with carrageenan measured at 3.5 hrs post carrageenan injection relative to control; type: functional; settings: Fisher 344, ip
[14] = Selectivity index, ratio of IC50 for human KB cells to IC50 for Plasmodium falciparum K1 infected in human erythrocytes; type: toxicity, cell-based; settings: read-out: Ratio IC50
[15] = test system: Plasmodium falciparum; assay: Antiplasmodial activity against chloroquine-resistant Plasmodium falciparum FCR-3 infected in human erythrocytes after 3 days by [3H]-hypoxanthine incorporation assay; type: functional, organism-based; settings: FCR-3/Gambia
[16] = Therapeutic index, ratio of CC50 for human MT4 cells to EC50 for HIV1 infected in human MT4 cells; type: toxicity, cell-based; settings: uninfected versus HIV1-infected, read-out: Ratio EC50

Cc1nc2ccccc2nc1CCC(=O)N/N=C/c1ccc(O)cc1
inhibition (INH) [1]: 55.3 - 65.9%

Cc1nc2ccccc2nc1CCC(=O)N/N=C/c1ccc(N(C)C)cc1
inhibition (INH) [1]: 55.3 - 65.9%

Brc1ccc2nc(N3CCOCC3)c3nnnn3c2c1
IC50 [2]: > 100 µg/mL

COc1ccc2c(c1)[n+]([O-])c(C#N)c(-c1ccco1)[n+]2[O-]
IC50 [3]: 280 nM

O=[N+]([O-])c1ccc(C2OC2c2cnc3ccccc3n2)o1 (stereo not given)
IC50 [4]: 3.9 µM | IC50 [5]: 5 µM

O=c1[nH]c2ccccc2[nH]/c1=N/N=C/[C@@H]1O[C@H](CO)[C@@H](O)[C@H](O)[C@@H]1O
MIC [6]: 0.65 µM (≈ 0.228 µg/mL) | MIC [7]: 2.07 µM (≈ 0.725 µg/mL) | MIC [8]: 2.07 µM (≈ 0.725 µg/mL) | MIC [9]: 2.07 µM (≈ 0.725 µg/mL) | MIC [10]: 2.07 µM (≈ 0.725 µg/mL) | MIC [11]: 2.07 µM (≈ 0.725 µg/mL)

Cc1nc2ccccc2nc1CCC(=O)N/N=C/c1c[nH]c2ccccc12
inhibition (INH) [1]: 55.3 - 65.9%

COc1ccc2c(c1)c(CC(=O)O)c(C)n2C(=O)c1ccc(Cl)cc1 [INDOMETHACIN]
inhibition (INH) [12]: 79.5% | inhibition in vivo at 10 µmol/kg [13]: 47%

N#Cc1c(-c2ccco2)[n+]([O-])c2ccccc2[n+]1[O-]
IC50 [3]: 630 nM | selectivity ratio [14]: 10.3

Cc1nc2ccccc2nc1CCC(=O)N/N=C/c1ccccc1
inhibition (INH) [1]: 55.3 - 65.9%

COc1ccc(/C=N/N=c2/[nH]c3ccccc3nc2CCC(=O)O)cc1
inhibition (INH) [12]: 66.04%

O=c1[nH]c2ccccc2[nH]/c1=N/N=C/[C@@H]1O[C@H](CO)[C@@H](O[C@H]2O[C@H](CO)[C@@H](O)[C@H](O)[C@H]2O)[C@H](O)[C@H]1O
MIC [6]: 0.65 µM (≈ 0.333 µg/mL) | MIC [7]: 2.07 µM (≈ 1.06 µg/mL) | MIC [8]: 2.07 µM (≈ 1.06 µg/mL) | MIC [9]: 2.07 µM (≈ 1.06 µg/mL) | MIC [10]: 2.07 µM (≈ 1.06 µg/mL) | MIC [11]: 2.07 µM (≈ 1.06 µg/mL)

c1ccc2nccnc2c1 [QUINOXALINE]
IC50 [4]: 4.6 µM | IC50 [5]: 13 µM

Cc1nc2ccccc2nc1CCC(=O)N/N=C/c1ccco1
inhibition (INH) [1]: 55.3 - 65.9%

COc1ccc(/C=N/N=c2/[nH]c3ccc(C)cc3nc2CCC(=O)O)cc1
inhibition (INH) [12]: 69.85%

COc1ccc2nc(C)c(-c3cc(-c4cc(OC)c(OC)c(OC)c4)nc(N)n3)nc2c1
inhibition in vivo at 10 µmol/kg [13]: 41%

Brc1ccc2nc(N3CCCCC3)c3nnnn3c2c1
IC50 [2]: > 100 µg/mL

Cc1c(C(=O)/C=C/c2ccc3ccccc3c2)[n+]([O-])c2ccccc2[n+]1[O-]
IC50 [15]: 5.8 µM

O=c1[nH]c2ccccc2[nH]/c1=N/N=C/[C@@H]1O[C@H](CO)[C@@H](O[C@@H]2O[C@H](CO)[C@H](O)[C@H](O)[C@H]2O)[C@H](O)[C@H]1O
MIC [6]: 0.65 µM (≈ 0.333 µg/mL) | MIC [7]: 2.07 µM (≈ 1.06 µg/mL) | MIC [8]: 2.07 µM (≈ 1.06 µg/mL) | MIC [9]: 2.07 µM (≈ 1.06 µg/mL) | MIC [10]: 2.07 µM (≈ 1.06 µg/mL) | MIC [11]: 2.07 µM (≈ 1.06 µg/mL)

CC(C)Cc1ccc(C(C)C(=O)O)cc1 (stereo not given) [IBUPROFEN]
inhibition (INH) [1]: 73.5%

Cc1nc2ccccc2nc1CCC(=O)N/N=C/c1ccc(Cl)cc1
inhibition (INH) [1]: 55.3 - 65.9%

Brc1ccc2c(c1)n1nnnc1c1nnnn21
IC50 [2]: > 100 µg/mL

COc1cc(/C=C/C(=O)c2c(C)[n+]([O-])c3ccccc3[n+]2[O-])cc(OC)c1OC
IC50 [15]: 6.2 µM

Cc1cc2ncc(=O)n(CC(O)CO)c2cc1C (stereo not given)
selectivity ratio [16]: 73

O=c1[nH]c2ccccc2[nH]/c1=N/N=C/[C@@H]1O[C@H](CO)[C@@H](O)[C@H](O)[C@H]1O
MIC [6]: 0.65 µM (≈ 0.228 µg/mL) | MIC [7]: 2.07 µM (≈ 0.725 µg/mL) | MIC [8]: 2.07 µM (≈ 0.725 µg/mL) | MIC [9]: 2.07 µM (≈ 0.725 µg/mL) | MIC [10]: 2.07 µM (≈ 0.725 µg/mL) | MIC [11]: 2.07 µM (≈ 0.725 µg/mL)

[N-]=[N+]=Nc1nc2cc(Br)ccc2nc1Cl
IC50 [2]: > 100 µg/mL
